This passage reports TGI and GI50 results from PubChem BioAssay (NCI).

Test systems include CAKI-1 renal; NCI-H522 lung; RPMI-8226 leukemia; SF-295 CNS; SK-MEL-2 melanoma; U251 CNS; UACC-62 melanoma; EKVX NSCLC; HL-60(TB) leukemia.
What all share (test): growth of human tumour cells (NCI), 48 h

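Test compounds were applied to cells in 96-well plates for 48 hours at 5 doses. Here, GI50 denotes the concentration required for 50% inhibition of growth. Definition used: TGI = concentration required for complete inhibition of growth.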

On to `COc1nc(NC2OC(COC(C)=O)C(OC(C)=O)C(OC(C)=O)C2OC(C)=O)c(-c2csc(N)n2)c(=O)n1C` (centres undefined), for which the TGI is over 100 µM in the assay on CAKI-1 renal; over 100 µM with NCI-H522 lung; over 100 µM in the assay on RPMI-8226 leukemia; over 100 µM in the assay on SF-295 CNS; 90.2 µM with SK-MEL-2 melanoma; over 100 µM in the assay with U251 CNS. Further, in the assay on UACC-62 melanoma, the TGI was over 100 µM.
For the compound `CCCCCCCCCCCCCc1nn[nH]n1`, the TGI in the assay on EKVX NSCLC worked out at 52 µM; in the assay on HL-60(TB) leukemia, 39.9 µM; with NCI-H522 lung it was 42.6 µM; with RPMI-8226 leukemia, 64.2 µM; in the assay with SF-295 CNS, 34.6 µM; with SK-MEL-2 melanoma, 33.1 µM. Besides, the TGI with U251 CNS amounted to 32.8 µM; with UACC-62 melanoma it was 34.6 µM.
Regarding `CCC1CNC(=O)CC1CC(=O)OC` (centres undefined), the TGI with CAKI-1 renal, in the assay on EKVX NSCLC, with HL-60(TB) leukemia, in the assay with NCI-H522 lung, with SK-MEL-2 melanoma and in the assay on U251 CNS was over 100 µM throughout. In the assay on UACC-62 melanoma, the TGI is over 100 µM.
Turning to `O=c1cc(-c2ccccn2)[nH]c2ccc(Cl)cc12`, the TGI with EKVX NSCLC was over 100 µM; in the assay on HL-60(TB) leukemia, over 100 µM; in the assay with NCI-H522 lung, 97.2 µM; with RPMI-8226 leukemia, over 100 µM; in the assay on SF-295 CNS, over 100 µM; with UACC-62 melanoma, over 100 µM. Besides, the GI50 with SF-295 CNS is 51.5 µM.
On to `COc1cccc(NC(=O)C(=O)C(C(C)=O)c2nc3ccc(Cl)cc3[nH]c2=O)c1` (centres undefined), for which the TGI with CAKI-1 renal, in the assay with EKVX NSCLC, in the assay with HL-60(TB) leukemia, with RPMI-8226 leukemia, in the assay on SF-295 CNS and in the assay with SK-MEL-2 melanoma was over 100 µM each time. Further, the TGI with U251 CNS and with UACC-62 melanoma was over 100 µM throughout.
Take `O=C(Nc1cccc(NC(=O)c2cc(=O)c3ccccc3o2)n1)c1cc(=O)c2ccccc2o1`: the TGI in the assay on CAKI-1 renal was over 100 µM; in the assay on EKVX NSCLC, over 100 µM; with HL-60(TB) leukemia it was over 100 µM; in the assay with NCI-H522 lung it was 48.3 µM; with RPMI-8226 leukemia it was 81.3 µM; in the assay on SK-MEL-2 melanoma, over 100 µM. Besides, the TGI with U251 CNS and in the assay on UACC-62 melanoma was over 100 µM throughout.
Take `C#CCN(Cc1ccc2nc(N)[nH]c(=O)c2c1)c1ccc(C(=O)NC(CCC(=O)O)C(=O)O)cc1` (centres undefined): the TGI in the assay on CAKI-1 renal, with EKVX NSCLC, in the assay with HL-60(TB) leukemia, in the assay on RPMI-8226 leukemia, in the assay with SF-295 CNS and in the assay on U251 CNS was over 100 µM throughout.
As to `COc1cc2c(c(OC)c1OC)-c1ccc(SC)c(=O)cc1[C@@H](NC(=O)c1ccc(Cl)cc1)CC2`, the TGI with HL-60(TB) leukemia was under 0.01 µM; with RPMI-8226 leukemia, 95.3 µM; in the assay on SF-295 CNS, under 0.01 µM; with SK-MEL-2 melanoma, 5.47 µM; with U251 CNS, under 0.01 µM; with UACC-62 melanoma, 56.3 µM.
With `CC(=O)Oc1ccc(/C=N/NC(N)=S)nc1`, the GI50 is 10.8 µM in the assay on EKVX NSCLC; 1.74 µM in the assay with HL-60(TB) leukemia; 2.61 µM with NCI-H522 lung; 9.43 µM with RPMI-8226 leukemia; 6.42 µM in the assay on SF-295 CNS; 77 µM in the assay with SK-MEL-2 melanoma. The GI50 in the assay on U251 CNS is 4.17 µM; in the assay with UACC-62 melanoma it was 4.36 µM. For the same compound, the TGI is over 100 µM in the assay on EKVX NSCLC; 8.44 µM with HL-60(TB) leukemia; over 100 µM with NCI-H522 lung; over 100 µM in the assay with RPMI-8226 leukemia; 42.6 µM in the assay with SF-295 CNS; over 100 µM with SK-MEL-2 melanoma. The TGI in the assay with U251 CNS and in the assay on UACC-62 melanoma was over 100 µM throughout.
As for `Cc1nc(-n2nc(-c3ccccc3)cc2-c2ccccc2)sc1C(/C=C/c1ccc([N+](=O)[O-])cc1)=N/NC(=O)c1ccncc1`, the TGI in the assay on EKVX NSCLC was over 100 µM; in the assay with HL-60(TB) leukemia, 36.7 µM; in the assay with RPMI-8226 leukemia it was over 100 µM; in the assay on SF-295 CNS it was over 100 µM; with SK-MEL-2 melanoma, 66.1 µM; with U251 CNS, over 100 µM. Also, in the assay with UACC-62 melanoma, the TGI is 81.1 µM.
For `O=C1C=CC2(C=C1)C[C@H](NC(=O)C(F)(F)F)C(=O)O2`, the TGI in the assay on CAKI-1 renal was over 100 µM; in the assay on EKVX NSCLC it was 39.6 µM; with HL-60(TB) leukemia, 36.1 µM; in the assay with NCI-H522 lung, 32.1 µM; with RPMI-8226 leukemia it was over 100 µM; with SF-295 CNS it was over 100 µM. The figures for the TGI in the assay with U251 CNS and with UACC-62 melanoma were over 100 µM and 37.7 µM, respectively.
For the compound `CCSC(SCC)=C1C(=O)N(c2ccccc2)N=C1C`, the TGI stood at 15.8 µM with CAKI-1 renal; 28.5 µM with EKVX NSCLC; 7.35 µM in the assay on HL-60(TB) leukemia; 5.05 µM in the assay on NCI-H522 lung; 27 µM in the assay on RPMI-8226 leukemia; 73.5 µM with SF-295 CNS. For the same compound, the TGI in the assay on SK-MEL-2 melanoma is 33 µM; in the assay with UACC-62 melanoma, 28 µM.
`CCOC(=O)[C@H]1Nc2ccccc2C2c3ccccc3CC21` (some centres undefined): the TGI in the assay with CAKI-1 renal, in the assay with NCI-H522 lung, in the assay on RPMI-8226 leukemia, in the assay on SF-295 CNS, in the assay on SK-MEL-2 melanoma and with U251 CNS was over 100 µM throughout. The TGI in the assay with UACC-62 melanoma is over 100 µM.
With `N[C@@H]1CCCC[C@@H]1N.O=P([O-])([O-])CN(CP(=O)([O-])[O-])CP(=O)([O-])[O-].[Pt+2]`, the GI50 in the assay on CAKI-1 renal, in the assay with HL-60(TB) leukemia, in the assay with RPMI-8226 leukemia, in the assay on SF-295 CNS, with SK-MEL-2 melanoma and with U251 CNS was over 100 µM throughout. In the assay on UACC-62 melanoma, the GI50 is over 100 µM. Besides, the TGI in the assay on CAKI-1 renal, with HL-60(TB) leukemia, with RPMI-8226 leukemia, in the assay on SF-295 CNS, in the assay with SK-MEL-2 melanoma and with U251 CNS was over 100 µM in each case. In the assay on UACC-62 melanoma, this compound came in with a TGI of over 100 µM.
As to `CCCCCCCCCCCCOP(N)(=O)OCCCCCCCCCCCC`, the TGI in the assay on EKVX NSCLC, in the assay on HL-60(TB) leukemia, in the assay on NCI-H522 lung, in the assay on RPMI-8226 leukemia, in the assay on SF-295 CNS and in the assay with U251 CNS was over 100 µM each time. Also, the TGI in the assay with UACC-62 melanoma is over 100 µM.
